Measurements published in US20060079453A1, “Hla binding peptides and their uses” (priority 2002, published 2006).
Where two headings read alike, the source gives them in different places. No end group written: not given here.

Tests used:
Test in all cases: biochemical
Assay type in all cases: binding
[1] = biological target: HLA-DR DRB1*0401 (DR4) (Homo sapiens, UniProt P01903+P01911, A100K/A169T/F76Y/I96L/K127E/L162R/M171V/N62H/P40V/Q125Y/R42H/S133A/S149N/S66Y/V115G/V209L/W38E)
[2] = biological target: HLA-DR DRB1*0701 (DR7) (Homo sapiens, UniProt P01903+P01911, A100R/A102G/A103Q/D57E/D86V/E43K/F76Y/K127E/L162R/M171V/P40G/Q125H/Q99D/R33Q/R42Y/R54Q/S133A/S66F/T210M/V115G/Y107V/Y59L/Y89S)
[3] = biological target: HLA-DR DRB1*0901 (DR9) (Homo sapiens, UniProt P01903+P01911, A100R/A103E/D57H/D86V/F55Y/F60I/F76Y/I96F/K127E/L162R/M171V/P40D/Q125H/Q99R/R33Q/R42F/S133A/S66N/T210M/V115G/W38K/Y107V/Y59G/Y89S)
[4] = biological target: HLA-DR DRB1*0802 (DR8) (Homo sapiens, UniProt P01903+P01911, A100R/A103L/A169T/F76Y/H45Y/I96F/K41T/L162R/M171V/P40S/Q125H/Q178H/Q39Y/Q99D/R218S/R42G/S66Y/V115G/W38E)
[5] = biological target: HLA-DR DRB1*0101 (DR1) (Homo sapiens, UniProt P01903+P01911, A100R/D57E/F55L/F60I/F76Y/I96L/L162R/M171V/P40L/Q125E/R42F/V115G/Y59C)
[6] = biological target: HLA-DR DRB1*0301 (DR3) (Homo sapiens, UniProt P01903+P01911, A100K/A102G/A103R/A169T/F55Y/I96L/K41T/L162R/M171V/P40S/Q125H/Q178H/Q39Y/R42S/S66N/T106N/T262R/W38E/Y61H)
HLA-DR DRB1*0301 (DR3), sequence (P01903 26-254 limits assumed, other chains not shown): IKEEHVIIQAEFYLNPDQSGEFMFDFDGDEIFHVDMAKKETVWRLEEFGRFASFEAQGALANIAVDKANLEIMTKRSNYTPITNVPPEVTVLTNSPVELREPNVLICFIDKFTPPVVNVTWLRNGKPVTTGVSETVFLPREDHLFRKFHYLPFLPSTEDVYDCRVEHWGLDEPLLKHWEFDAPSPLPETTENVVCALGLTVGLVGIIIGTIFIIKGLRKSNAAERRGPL

[7] = biological target: HLA-DR DRB5*0101 (DR51) (Homo sapiens, UniProt P01903+Q30154); conditions: DRB5 *0101
[8] = biological target: HLA-DR DRB4*0101 (DR53) (Homo sapiens, UniProt P01903+P13762, G164S); conditions: DRB4 *0101
[9] = biological target: HLA-DR DRB1*1101 (DR11) (Homo sapiens, UniProt P01903+P01911, A100R/A169T/A87E/I96F/K41T/L162R/M171V/P40S/Q125H/Q178H/Q39Y/Q99D/R42S/S66Y/T262R/V115G/W38E); conditions: DRB1 *1101
HLA-DR DRB1*1101 (DR11), sequence (P01903 26-254 limits assumed, other chains not shown): as above

[10] = biological target: HLA-DR DRB1*1302 (DR13) (Homo sapiens, UniProt P01903+P01911, A100E/A169T/K41T/L162R/M171V/P40S/Q125H/Q178H/Q39Y/Q99D/R42S/S66N/T262R/V115G/W38E/Y61H); conditions: DRBI *1302
HLA-DR DRB1*1302 (DR13), sequence (P01903 26-254 limits assumed, other chains not shown): as above

[11] = biological target: HLA-DR DRB1*1501 (DR15) (Homo sapiens, UniProt P01903+P01911); conditions: DRBI *1501

FYNQHLTGSHLVEAL
IC50 ([1]; read-out: DRB1 *0401): 0.858 µM | IC50 ([2]; read-out: DRB1 *0701): 0.015 µM | IC50 ([3]; read-out: DRB1 *0901): 41.5 µM | IC50 ([4]; read-out: DRB1 *0802): > 54.4 µM | IC50 ([5]; read-out: DRB1 *0101): 0.0092 µM | IC50 ([6]; read-out: DRB1 *0301): 67.2 µM

PRWLCAGALVLAGGF
IC50 ([1]; DRB1 *0401): > 20 µM | IC50 [7]: 40.8 µM | IC50 ([2]; DRB1 *0701): 0.766 µM | IC50 ([3]; DRB1 *0901): 1.44 µM | IC50 [8]: 0.883 µM | IC50 [4]: 26.5 µM | IC50 [9]: > 40 µM | IC50 ([5]; DRB1 *0101): 0.046 µM | IC50 [10]: 20.2 µM

IFAIFRQDSSSTGWN
IC50 ([1]; DRB1 *0401): 0.0096 µM | IC50 [7]: 109 µM | IC50 [11]: 0.204 µM | IC50 ([3]; DRB1 *0901): 0.97 µM | IC50 [8]: 0.03 µM | IC50 [4]: 4.73 µM | IC50 [9]: 4.56 µM | IC50 [6]: 0.402 µM | IC50 [10]: 0.775 µM

IGYYDAQKLLEKMGG
IC50 ([1]; DRB1 *0401): 12.6 µM | IC50 [11]: 1.98 µM | IC50 ([2]; DRB1 *0701): > 83.3 µM | IC50 ([3]; DRB1 *0901): 47.2 µM | IC50 [8]: 13.6 µM | IC50 [4]: 8.24 µM | IC50 [9]: > 28.6 µM | IC50 [10]: 5.73 µM

CSCC[C@H](NC(=O)[C@H](CCC(N)=O)NC(=O)[C@H](CC(C)C)NC(=O)CNC(=O)[C@H](CO)NC(=O)[C@@H](NC(=O)[C@@H](NC(=O)[C@@H](NC(=O)[C@@H](N)CC(=O)O)[C@@H](C)O)[C@@H](C)O)C(C)C)C(=O)N[C@@H](C)C(=O)N[C@@H](CC(C)C)C(=O)N[C@@H](CC(=O)O)C(=O)N[C@H](C(=O)N[C@@H](Cc1ccc(O)cc1)C(=O)N[C@@H](CC(N)=O)C(=O)O)C(C)C
IC50 ([1]; DRB1 *0401): 4.42 µM | IC50 [7]: > 200 µM | IC50 [11]: 1.04 µM | IC50 ([2]; DRB1 *0701): 14.7 µM | IC50 ([3]; DRB1 *0901): 2.88 µM | IC50 [8]: 0.961 µM | IC50 [4]: > 245 µM | IC50 [9]: > 50 µM | IC50 [10]: 3.5 µM

LMAFTAAVTS
IC50 ([1]; DRB1 *0401): 0.321 µM | IC50 [7]: > 12.6 µM | IC50 [11]: 1.93 µM | IC50 ([2]; DRB1 *0701): 0.24 µM | IC50 ([3]; DRB1 *0901): 0.16 µM | IC50 [8]: 11.7 µM | IC50 [4]: > 40.6 µM | IC50 [9]: > 23.3 µM | IC50 [6]: > 74 µM | IC50 [10]: > 2.46 µM

CC[C@H](C)[C@H](NC(=O)CNC(=O)[C@H](CCC(N)=O)NC(=O)[C@H](CC(C)C)NC(=O)[C@@H](NC(=O)CNC(=O)[C@H](CC(N)=O)NC(=O)[C@H](CS)NC(=O)[C@@H](NC(=O)[C@H](CC(C)C)NC(=O)[C@@H]1CCCN1C(=O)CN)C(C)C)C(C)C)C(=O)N[C@H](C(=O)N[C@@H](CO)C(=O)N[C@@H](Cc1c[nH]c2ccccc12)C(=O)O)[C@@H](C)O
IC50 ([1]; DRB1 *0401): 0.03 µM | IC50 [7]: 6.54 µM | IC50 [11]: 6.31 µM | IC50 ([2]; DRB1 *0701): 4.89 µM | IC50 ([3]; DRB1 *0901): 32.6 µM | IC50 [8]: 0.646 µM | IC50 [4]: 4.19 µM | IC50 [9]: 0.915 µM | IC50 ([5]; DRB1 *0101): 1.72 µM | IC50 [10]: 0.049 µM

CC[C@H](C)[C@H](NC(=O)[C@H](CO)NC(=O)[C@H](CC(C)C)NC(=O)[C@@H](NC(=O)[C@H](CC(C)C)NC(=O)[C@H](CC(=O)O)NC(=O)[C@H](Cc1c[nH]c2ccccc12)NC(=O)[C@@H](N)CCSC)C(C)C)C(=O)N[C@@H](C)C(=O)N[C@@H](CC(C)C)C(=O)N[C@@H](CO)C(=O)N[C@H](C(=O)NCC(=O)N[C@@H](CS)C(=O)N[C@H](C(=O)O)[C@@H](C)O)C(C)C
IC50 ([1]; DRB1 *0401): 1.85 µM | IC50 [7]: 70.7 µM | IC50 [11]: 11.4 µM | IC50 ([2]; DRB1 *0701): 3.03 µM | IC50 ([3]; DRB1 *0901): 1.73 µM | IC50 [8]: 0.158 µM | IC50 [4]: 23 µM | IC50 [9]: 81.1 µM | IC50 ([5]; DRB1 *0101): 0.205 µM | IC50 [10]: 0.108 µM

CAWTIVRVEILRNFY
IC50 ([1]; DRB1 *0401): 0.158 µM | IC50 ([2]; DRB1 *0701): 0.746 µM | IC50 ([3]; DRB1 *0901): 0.757 µM | IC50 [8]: 0.152 µM | IC50 [4]: 43.7 µM | IC50 ([5]; DRB1 *0101): 0.066 µM | IC50 [6]: 3.56 µM

CC[C@H](C)[C@H](NC(=O)[C@@H](N)CCC(N)=O)C(=O)N[C@@H](Cc1ccc(O)cc1)C(=O)N[C@H](C(=O)N[C@@H](C)C(=O)N[C@@H](C)C(=O)N[C@@H](Cc1ccccc1)C(=O)N[C@H](C(=O)N[C@H](C(=O)N[C@@H](CCC(N)=O)C(=O)N[C@@H](C)C(=O)N[C@@H](C)C(=O)N[C@@H](C)C(=O)N[C@@H](CCC(=O)O)C(=O)N[C@H](C(=O)O)[C@@H](C)O)C(C)C)[C@@H](C)O)C(C)C
IC50 ([1]; DRB1 *0401): 0.0016 µM | IC50 [7]: 0.216 µM | IC50 [11]: 0.252 µM | IC50 ([2]; DRB1 *0701): 0.324 µM | IC50 ([3]; DRB1 *0901): 0.065 µM | IC50 [8]: 0.05 µM | IC50 [4]: 0.102 µM | IC50 [9]: 0.034 µM | IC50 ([5]; DRB1 *0101): 0.0016 µM | IC50 [6]: 26.6 µM
